From US7884215B2, “2-substituted benzimidazoles” (priority 2005, dated 2011)

Tested on: Respiratory Syncytial Virus
Assay: microbe, parasite or virus in culture
Assay type: cell-based
Conditions: human respiratory syncytial virus, 168 h; antiviral activity; protection against cytopathology caused by RSV in HeLa cells, MTT read-out seven days after infection
Description: The percent protection against cytopathology caused by viruses (antiviral activity or EC50) achieved by tested compounds and their cytotoxicity (CC50) are both calculated from dose-response curves.
Automated tetrazolium-based colorimetric assays were used for determination of EC50 and CC50 of test compounds. […] Subsequently, stock solutions (7.8× final test concentration) of compounds were added in 45 μl volumes to a series of triplicate wells so as to allow simultaneous evaluation of their effects on virus- and mock-infected cells. Five five-fold dilutions were made directly in the microtiter trays using a robot system. Untreated virus controls, and HeLa cell controls were included in each test. Approximately 100 TCID50 of Respiratory Syncytial Virus was added to two of the three rows in a volume of 50 μl. The same volume of medium was added to the third row to measure the cytotoxicity of the compounds at the same concentrations as those used to measure the antiviral activity. […] Finally, the absorbances were read in an eight-channel computer-controlled photometer (Multiskan MCC, Flow Laboratories) at two wavelengths (540 and 690 nm). The absorbance measured at 690 nm was automatically subtracted from the absorbance at 540 nm, so as to eliminate the effects of non-specific absorption.

In the case of `Cc1ccc(CCCO)c(NCc2ccc3nc(C(N)=O)n(Cc4nc(C)ccc4O)c3c2)c1` [d-10], the EC50 is reported as 631 nM.
